Patent US20220395472A1 (Dermavant Sciences GmbH, priority 2021, published 2022)

Test system: adults with plaque psoriasis
Assay: Long-term open-label extension study (PSOARING 3): Physician Global Assessment (PGA), treatment episodes, treatment success, remittive effect
Format: in vivo, human
Settings: for Average Duration of Episodes, Mean (SD) / Average Duration of Episodes, Median / Average Duration of Treatment Success, Median / Duration of 1st Episode, Mean (SD) / Duration of 1st Episode, Median / Duration of 1st Success, Mean (SD) / Duration of 1st Success, Median / Duration of 2nd Episode, Mean (SD) / Duration of 2nd Episode, Median / Duration of 2nd Success, Mean (SD) / Duration of 2nd Success, Median / Duration of 3rd Episode, Mean (SD) / Duration of 3rd Episode, Median / Duration of 3rd Success, Mean (SD) / Duration of 3rd Success, Median / Duration of 4th Episode, Mean (SD) / Duration of 4th Episode, Median / Duration of Last Episode, Mean (SD) / Duration of Last Episode, Median / Duration of Last Success, Mean (SD) / Duration of Last Success, Median / Total Duration of Treatment Episodes, Mean (SD) / Total Duration of Treatment Episodes, Median / Total Duration of Treatment Success, Mean (SD) / Total Duration of Treatment Success, Median / Average Duration of Treatment Success (treatment free interval), Mean (SD) / Average Duration of Treatment Success, Mean (SD): ITT; for Average Duration of Treatment Success (treatment free interval), Mean (SD): Overall (n=299)
Method: This extension study consisted of up to 40 weeks of treatment and a 4 week, safety follow up period.
At the completion of the Week 12 visit of the DB, pivotal Phase 3 study, eligibility of the subjects opting to enroll in this extension study was confirmed. Study visits during the treatment period for all subjects occurred every 4 weeks (±3 days). A phone call was performed at Week 2 (Day 15). Unscheduled visits may have occurred, as needed. Subjects who withdrew from this study before Week 40 returned to the study center for an Early Termination visit. The total duration of this extension study participation was 44 weeks. Subjects in this study were treated as follows based on their PGA score from the Week 12 visit in the DB, pivotal Phase 3 study (Study DMVT 505 3001 or Study DMVT 505 3002).
The PGA was used to assess the primary efficacy endpoint in this study. The PGA is a clinical tool for assessing the current state/severity of a subject's psoriasis at a given time point. It is a static, 5 point, morphological assessment of overall disease severity, as determined by the Investigator, using the clinical characteristics of erythema, scaling, and plaque thickness/elevation as guidelines; higher PGA scores represent more severe disease (0=clear, 1=almost clear, 2=mild, 3=moderate, and 4=severe). The BSA affected was not considered in scoring of the PGA. Variations of the PGA are frequently used in clinical studies because it is a simple assessment, similar to those used in clinical practice. The PGA was performed first, prior to the % BSA, PASI, and LTS assessments.
Time to event parameters, such as the time from treatment success to subsequent worsening (PGA≥2) or duration of treatment episode, were summarized by the Kaplan Meier product limit method using OC.

CC(C)c1c(O)cc(/C=C/c2ccccc2)cc1O [Tapinarof, 3,5-Dihydroxy-4-isopropyl-trans-stilbene]
PGA 3 - Moderate (Baseline, Overall): 249 (32.8) n (%) | PGA 4 - Severe (Baseline, Overall): 23 (3.0) n (%) | PGA 0 - Clear (Baseline, Tapinarof (Pivotal)): 73 (14.5) n (%) | PGA 1 - Almost Clear (Baseline, Tapinarof (Pivotal)): 144 (28.5) n (%) | PGA 2 - Mild (Baseline, Tapinarof (Pivotal)): 188 (37.2) n (%) | PGA 3 - Moderate (Baseline, Tapinarof (Pivotal)): 93 (18.4) n (%) | PGA 4 - Severe (Baseline, Tapinarof (Pivotal)): 7 (1.4) n (%) | Average Duration of Episodes, Mean (SD) (Overall): 162.7 (96.20) days | Average Duration of Episodes, Median (Overall): 168.0 days | Average Duration of Treatment Success, Median (Overall): 84.0 days | Duration of 1st Episode, Mean (SD) (Overall): 163.1 (97.10) days | Duration of 1st Episode, Median (Overall): 169.0 days | Duration of 1st Success, Mean (SD) (Overall): 100.0 (78.49) days | Duration of 1st Success, Median (Overall): 84.0 days | Duration of 2nd Episode, Mean (SD) (Overall): 74.0 (55.35) days | Duration of 2nd Episode, Median (Overall): 57.0 days | Duration of 2nd Success, Mean (SD) (Overall): 65.4 (60.68) days | Duration of 2nd Success, Median (Overall): 41.0 days | Duration of 3rd Episode, Mean (SD) (Overall): 50.4 (41.38) days | Duration of 3rd Episode, Median (Overall): 32.5 days | Duration of 3rd Success, Mean (SD) (Overall): 30.0 (26.46) days | Duration of 3rd Success, Median (Overall): 28.0 days | Duration of 4th Episode, Mean (SD) (Overall): 1.0 (NE) days | Duration of 4th Episode, Median (Overall): 1.0 days | Duration of Last Episode, Mean (SD) (Overall): 162.4 (98.51) days | Duration of Last Episode, Median (Overall): 169.0 days | Duration of Last Success, Mean (SD) (Overall): 95.4 (82.18) days | Duration of Last Success, Median (Overall): 64.0 days | Total Duration of Treatment Episodes, Mean (SD) (Overall): 177.6 (90.38) days | Total Duration of Treatment Episodes, Median (Overall): 197.0 days | Total Duration of Treatment Success, Mean (SD) (Overall): 119.3 (81.80) days | Total Duration of Treatment Success, Median (Overall): 112.0 days | Average Duration of Treatment Success (treatment free interval), Mean (SD): 97.9 (76.60) days | Average Duration of Treatment Success (treatment free interval), Mean (SD) (listed as tapinarof): 97.9 days | Average Duration of Episodes, Mean (SD) (Tapinarof (Pivotal) group): 157.1 (97.16) days | Average Duration of Episodes, Median (Tapinarof (Pivotal) group): 140.5 days | Average Duration of Treatment Success, Mean (SD) (Tapinarof (Pivotal) group): 102.4 (77.90) days | Average Duration of Treatment Success, Median (Tapinarof (Pivotal) group): 84.0 days | Duration of 1st Episode, Mean (SD) (Tapinarof (Pivotal) group): 156.6 (98.77) days | Duration of 1st Episode, Median (Tapinarof (Pivotal) group): 147.5 days | Duration of 1st Success, Mean (SD) (Tapinarof (Pivotal) group): 103.0 (80.13) days | Duration of 1st Success, Median (Tapinarof (Pivotal) group): 84.0 days | Duration of 2nd Episode, Mean (SD) (Tapinarof (Pivotal) group): 80.7 (58.54) days | Duration of 2nd Episode, Median (Tapinarof (Pivotal) group): 60.5 days | Duration of 2nd Success, Mean (SD) (Tapinarof (Pivotal) group): 76.5 (63.07) days | Duration of 2nd Success, Median (Tapinarof (Pivotal) group): 56.0 days | Duration of 3rd Episode, Mean (SD) (Tapinarof (Pivotal) group): 49.6 (52.51) days | Duration of 3rd Episode, Median (Tapinarof (Pivotal) group): 28.0 days | Duration of 3rd Success, Mean (SD) (Tapinarof (Pivotal) group): 32.7 (28.40) days | Duration of 3rd Success, Median (Tapinarof (Pivotal) group): 28.5 days | Duration of Last Episode, Mean (SD) (Tapinarof (Pivotal) group): 157.6 (99.25) days | Duration of Last Episode, Median (Tapinarof (Pivotal) group): 168.0 days | Duration of Last Success, Mean (SD) (Tapinarof (Pivotal) group): 101.5 (83.51) days | Duration of Last Success, Median (Tapinarof (Pivotal) group): 82.5 days | Total Duration of Treatment Episodes, Mean (SD) (Tapinarof (Pivotal) group): 173.2 (92.39) days | Total Duration of Treatment Episodes, Median (Tapinarof (Pivotal) group): 196.0 days | Total Duration of Treatment Success, Mean (SD) (Tapinarof (Pivotal) group): 125.4 (83.22) days | Total Duration of Treatment Success, Median (Tapinarof (Pivotal) group): 116.5 days | Average Duration of Episodes, Mean (SD) (Vehicle (Pivotal) group): 173.4 (93.60) days | Average Duration of Episodes, Median (Vehicle (Pivotal) group): 195.0 days | Average Duration of Treatment Success, Mean (SD) (Vehicle (Pivotal) group): 86.8 (72.58) days | Average Duration of Treatment Success, Median (Vehicle (Pivotal) group): 64.0 days | Duration of 1st Episode, Mean (SD) (Vehicle (Pivotal) group): 175.5 (92.74) days | Duration of 1st Episode, Median (Vehicle (Pivotal) group): 196.0 days | Duration of 1st Success, Mean (SD) (Vehicle (Pivotal) group): 92.8 (74.32) days | Duration of 1st Success, Median (Vehicle (Pivotal) group): 85.0 days | Duration of 2nd Episode, Mean (SD) (Vehicle (Pivotal) group): 57.8 (43.31) days | Duration of 2nd Episode, Median (Vehicle (Pivotal) group): 38.0 days | Duration of 2nd Success, Mean (SD) (Vehicle (Pivotal) group): 39.1 (45.75) days | Duration of 2nd Success, Median (Vehicle (Pivotal) group): 28.0 days | Duration of 3rd Episode, Mean (SD) (Vehicle (Pivotal) group): 51.6 (24.51) days | Duration of 3rd Episode, Median (Vehicle (Pivotal) group): 56.0 days | Duration of 3rd Success, Mean (SD) (Vehicle (Pivotal) group): 19.3 (15.89) days | Duration of 3rd Success, Median (Vehicle (Pivotal) group): 28.0 days | Duration of 4th Episode, Mean (SD) (Vehicle (Pivotal) group): 1.0 (NE) days | Duration of 4th Episode, Median (Vehicle (Pivotal) group): 1.0 days | Duration of Last Episode, Mean (SD) (Vehicle (Pivotal) group): 171.4 (96.61) days | Duration of Last Episode, Median (Vehicle (Pivotal) group): 195.0 days | Duration of Last Success, Mean (SD) (Vehicle (Pivotal) group): 80.5 (77.32) days | Duration of Last Success, Median (Vehicle (Pivotal) group): 56.0 days | Total Duration of Treatment Episodes, Mean (SD) (Vehicle (Pivotal) group): 185.9 (85.95) days | Total Duration of Treatment Episodes, Median (Vehicle (Pivotal) group): 197.0 days | Total Duration of Treatment Success, Mean (SD) (Vehicle (Pivotal) group): 104.3 (76.62) days
